# Measurements published in patent US4130647A, “Methods for treating congestive heart failure and ischemic heart disease” (priority 1977, dated 1978).
# Tests used:
# [1] = tested on: patients with chronic left sided congestive heart failure; test: Adverse effects of trimazosin (Example 3); format: in vivo, human
# Description: The patients then received in a double-blind, randomized study trimazosin or placebo for six weeks. Eight patients received one placebo capsule three times daily for weeks one and two, two placebo capsules three times daily for weeks three and four, and three placebo capsules three times daily for weeks five and six of the double-blind period. Seven patients received one 50 mg. trimazosin capsule three times daily for weeks one and two, two 50 mg. trimazosin capsules three times daily for weeks three and four, and three 50 mg. trimazosin capsules three times daily for weeks five and six of the double-blind period. One patient (patient number five on trimazosin) received one 50 mg. trimazosin capsule three times daily for 32 days. […] The patients were seen by one of the investigators, questioned for symptoms, and given a physical examination in the baseline period, at the end of two weeks of single-blind placebo, and at the end of weeks one, two, three, four, five, and six on double-blind medication. A standard 12-lead electrocardiogram and PA and lateral chest roentgenograms were taken in the baseline period, at the end of two weeks of single-blind placebo, and at the end of three weeks and six weeks on double-blind medication.
# [2] = tested on: patients with chronic left sided congestive heart failure; test: Resting and exercise blood pressure, heart rate, ST-segment depression and cardiothoracic ratio, trimazosin (Example 3); format: in vivo, human; conditions: for Cardiothoracic ratio / Exercise diastolic blood pressure / Exercise heart rate / Exercise systolic blood pressure / Exercise systolic pressure times heart rate/100 / Maximal ST-segment depression below resting level / Resting diastolic blood pressure / Resting heart rate / Resting systolic blood pressure / Resting systolic pressure times heart rate/100: mean
# Excerpt: Sixteen men between 41 and 66 years of age with chronic left sided congestive heart failure were subjects. Twelve patients had coronary heart disease with an old healed myocardial infarction, one patient had alcoholic cardiomyopathy, and three patients had idiopathic cardiomyopathy as the cause of their chronic heart failure. All 16 patients had cardiomegaly on physical examination and on their chest roentgenogram, a left ventricular third heart sound heard by auscultation, and evidence of pulmonary venous congestion on their chest roentgenogram. Their baseline standing blood pressures ranged between 114 and 150 mm. Hg. systolic and 72 and 100 mm. Hg. diastolic.
# After baseline measurements, all 16 patients received one capsule of single-blind placebo three times daily for two weeks. The patients then received in a double-blind, randomized study trimazosin or placebo for six weeks. Eight patients received one placebo capsule three times daily for weeks one and two, two placebo capsules three times daily for weeks three and four, and three placebo capsules three times daily for weeks five and six of the double-blind period. Seven patients received one 50 mg. trimazosin capsule three times daily for weeks one and two, two 50 mg. trimazosin capsules three times daily for weeks three and four, and three 50 mg. trimazosin capsules three times daily for weeks five and six of the double-blind period. One patient (patient number five on trimazosin) received one 50 mg. trimazosin capsule three times daily for 32 days.
# The patients were seen by one of the investigators, questioned for symptoms, and given a physical examination in the baseline period, at the end of two weeks of single-blind placebo, and at the end of weeks one, two, three, four, five, and six on double-blind medication. A standard 12-lead electrocardiogram and PA and lateral chest roentgenograms were taken in the baseline period, at the end of two weeks of single-blind placebo, and at the end of three weeks and six weeks on double-blind medication.
# Two practice treadmill tests were performed by all patients prior to the baseline period. The patients performed a multi-stage uninterrupted treadmill exercise test until the onset of marked dyspnea in the baseline period, and approximately two hours after their morning dose of medication after two weeks of single-blind placebo, after three weeks of double-blindmedication, and after six weeks of double-blind medication. The patients exercised at a treadmill speed of 1.7 m.p.h. and a treadmill grade of 0% for the first 3 min., a treadmill speed of 1.7 m.p.h. and a treadmill grade of 10% for the next 3 min., at a treadmill speed of 2.5 m.p.h. and a treadmill grade of 12% for the third 3 min. period, and then at a treadmill speed of 3.4 m.p.h. and a treadmill grade of 14%.
# The patients were monitored by telemetry with simultaneous leads II and V5 throughout exercise. […] blood pressures were recorded with the patients in the sitting and standing positions immediately before exercise, with the patients in the standing position at the end of each completed stage of exercise and at the end of exercise, and with the patients in the sitting and standing positions every 1 min. for at least 5 min. after the end of exercise. Blood pressures were recorded with a mercury sphygmomanometer. The heart rates were measured from the electrocardiographic recordings.
# The data listed in Tables 1-4 were analyzed using Student's t test for independent means. Fisher's exact test was used to analyze the data on improvement of symptoms and the data on changes in roentgenographic evidence of pulmonary venous congestion.
# [3] = tested on: norepinephrine; conditions: in vivo; cited from earlier work
# [4] = patient number five, four days prior to the myocardial infarction
smiles,measurement,setting,value
"COc1cc2c(N)nc(N3CCN(C(=O)OCC(C)(C)O)CC3)nc2c(OC)c1OC [trimazosin, 2-hydroxy-2-methylpropyl 4-(4-amino-6,7,8-trimethoxy-2-quinazolinyl)-1-piperazinecarboxylate]",adverse effects attributed to medication,[1]; 16 patients (trimazosin or placebo),No adverse effects attributed to medication occurred in any of the 16 patients
same,adverse effects such as systemic lupus erythematosus,[1]; in vivo,has not been associated with adverse effects such as systemic lupus erythematosus
same,reflex tachycardia,[1]; in vivo,does not produce a reflex tachycardia
same,event in patient number five,[1]; thirty-second day of trimazosin therapy,acute myocardial infarction with ventricular fibrillation
same,side effects,[1]; trimazosin 450 mg. daily,without occurrence of any side effects
same,"resting systolic blood pressure, change compared with placebo","[2]; 3 weeks, p<0.001",significant decrease
same,"resting product of systolic blood pressure times heart rate, change compared with placebo","[2]; 3 weeks, p<0.005",significant decrease
same,"resting diastolic blood pressure, change compared with placebo","[2]; 3 weeks, p<0.025",significant decrease
same,"diastolic blood pressure at the end of exercise, change compared with placebo","[2]; 6 weeks, p<0.005",significant decrease
same,"resting diastolic blood pressure, change compared with placebo","[2]; 6 weeks, p<0.005",significant decrease
same,"resting systolic blood pressure, change compared with placebo","[2]; 6 weeks, p<0.005",significant decrease
same,"resting product of systolic blood pressure times heart rate, change compared with placebo","[2]; 6 weeks, p<0.01",significant decrease
same,standing systolic blood pressure,"[2]; patient number five, after two weeks of 50 mg. three times daily",104/70
same,"blood pressure, standing position",[2]; [4],104/70
same,"blood pressure, supine position",[2]; [4],106/70
same,Cardiothoracic ratio,[2]; trimazosin 3 weeks,0.559
same,Exercise diastolic blood pressure,[2]; trimazosin 3 weeks,84.8 mm Hg
same,Exercise heart rate,[2]; trimazosin 3 weeks,149.3 beats/min
same,Exercise systolic blood pressure,[2]; trimazosin 3 weeks,156.5 mm Hg
same,Exercise systolic pressure times heart rate/100,[2]; trimazosin 3 weeks,236.4
same,Maximal ST-segment depression below resting level,[2]; trimazosin 3 weeks,1.31 mm
same,Resting diastolic blood pressure,[2]; trimazosin 3 weeks,74.3 mm Hg
same,Resting heart rate,[2]; trimazosin 3 weeks,86.3 beats/min
same,Resting systolic blood pressure,[2]; trimazosin 3 weeks,116.0 mm Hg
same,Resting systolic pressure times heart rate/100,[2]; trimazosin 3 weeks,100.0
same,Cardiothoracic ratio,[2]; trimazosin 6 weeks,0.556
same,Exercise diastolic blood pressure,[2]; trimazosin 6 weeks,80.5 mm Hg
same,Exercise heart rate,[2]; trimazosin 6 weeks,151.0 beats/min
same,Exercise systolic blood pressure,[2]; trimazosin 6 weeks,154.3 mm Hg
same,Exercise systolic pressure times heart rate/100,[2]; trimazosin 6 weeks,235.4
same,Maximal ST-segment depression below resting level,[2]; trimazosin 6 weeks,1.31 mm
same,Resting diastolic blood pressure,[2]; trimazosin 6 weeks,72.5 mm Hg
same,Resting heart rate,[2]; trimazosin 6 weeks,86.5 beats/min
same,Resting systolic blood pressure,[2]; trimazosin 6 weeks,112.0 mm Hg
same,Resting systolic pressure times heart rate/100,[2]; trimazosin 6 weeks,96.9
same,digital vascular reactivity to norepinephrine infusion,[3],decreased
same,norepinephrine uptake and secretion,[3],not affected
